Test results as given in patent EP4818177A1, “TRICYCLIC DERIVATIVE INHIBITOR, AND PREPARATION METHOD AND USE THEREFOR” (Shanghai Hansoh Biomedical Co., Ltd., priority 2023, dated 2025).

Assays:
[1] = biological target: T1, PRMT5/MEP50-MTA protein complex (Homo sapiens, UniProt O14744); assay: Thermal shift assay: change in melting temperature of the PRMT5/MEP50-MTA protein complex; assay type: binding; conditions: compound 8 µM, PRMT5/MEP50 2 µM, MTA 2 µM; Tm minus DMSO vehicle control
T1 construct: purchased Viva Biotech
From the text: Test Example 1: Determination of the ability of the compounds of the present invention to improve the thermal stability (melting temperature) of the PRMT5/MEP50-MTA protein complex.
1. Experimental objective: The objective of this test example is to determine the ability of the compound to improve the thermal stability of the PRMT5/MEP50-MTA protein complex, resulting in an increase in the protein melting temperature. 2. Experimental instruments: Quantitative PCR instrument (Quantstudio6 Flex) was purchased from Life Technologies; pipettes were purchased from Eppendorf or Rainin. 3. Experimental reagents and consumables: PRMT5/MEP50 protein was prepared by Viva Biotech; HEPES was purchased from Thermo Fisher Scientific (Cat. No. 15630080); DTT was purchased from Sigma (Cat. No. 43816-10ml); sodium chloride was purchased from Invitrogen (Cat. No. AM9760G); Protein Thermal Shift™ Dye Kit was purchased from Thermo Fisher Scientific (Cat. No. 4461146); methylthioadenosine (MTA) was purchased from Sigma (Cat. No. D5011). 4. Experimental methods: In this experiment, the thermal shift method was used to measure the change in the melting temperature (Tm) of the PRMT5/MEP50-MTA protein complex before and after compound binding, thereby characterising the ability of the compound to improve the thermal stability of the PRMT5/MEP50-MTA protein complex. A solution containing 50 mM HEPES, 10 mM DTT, 2 µM MTA, SYPRO Orange and 250 mM NaCl was prepared as the experimental buffer. Human PRMT5/MEP50 protein was added to a final concentration of 2 µM, and the mixture was incubated at room temperature for 30 minutes. The above reaction mixture was aliquoted into 8-strip PCR tubes at 19.5 µL per tube. Then 0.5 µL of test compound or DMSO was added to each tube, providing a total reaction volume of 20 µL and a final compound concentration of 8 µM. 2.5% DMSO was set as the vehicle control. After incubation at room temperature for 10 minutes, the PCR tubes were placed in a PCR instrument, and the melt curve function was selected to measure the melting temperature of the PRMT5/MEP50-MTA protein complex in different treatment groups (heated from 25°C to 95°C, 0.03°C/s). 5. Experimental data processing method: The experimental data files from the PCR instrument were imported into the thermal shift software to obtain the melting temperature (Tm) for each treatment group.

[2] = Pharmacokinetics in rats (plasma) after oral administration; conditions: male, SD, rat, 5 mg/kg
Experimental: Test Example 4: Determination of the pharmacokinetics of the compounds of the present invention in rats (plasma) after oral administration.
Study objective: SD rats were used as test animals to study the pharmacokinetic behaviour of the following example compounds in rats (plasma) after oral administration at a dose of 5 mg/kg. […] Test scheme 2.1 Test drugs: Vehicle formula: 0.5% CMC-Na (1% Tween 80); the examples of the present invention, prepared in house. 2.2 Test animals: 3 SD rats per group, male, purchased from Shanghai Bikai Keyi Biotechnology Co., Ltd., with animal license number (SCXK (Shanghai) 2018-0006, No.20180006037467). 2.3 Administration: 3 SD rats per group, male, were fasted overnight and then respectively administered PO at a dose of 5 mg/kg and a volume of 10 mL/kg. 2.4 Sample collection: 0.2 mL of blood was collected from the jugular vein of rats before administration and at 0, 0.25, 0.5, 1, 2, 4, 6, 8 and 24 h after administration, and placed in EDTA-K2test tubes, and the test tubes were centrifuged at 6,000 rpm at 4°C for 6 min to separate the plasma, which was stored at -80°C. The animals were fed 4 h after administration. 2.5 Sample treatment • 1) 160 uL of acetonitrile was added to 40 uL of plasma sample for precipitation, and after mixing, the mixture was centrifuged at 3,500 × g for 5-20 minutes. • 2) 100 uL of the treated supernatant solution was taken for LC/MS/MS analysis to determine the concentration of the test compounds. 2.6 Liquid phase analysis • Liquid phase conditions: Shimadzu LC-20AD pump; • Mass spectrometry conditions: AB Sciex API 4000 mass spectrometer; • Chromatographic column: phenomenex Gemiu 5 um C18 50 × 4.6 mm; • Mobile phase: solution A: 0.1% formic acid in water, solution B: methanol; • flow rate: 1.0 mL/min; Elution time: 0-4.0 min, with eluents as follows:
Experimental results and analysis: The main pharmacokinetic parameters were calculated using WinNonlin 8.2.

T1 sequence (O14744 whole entry): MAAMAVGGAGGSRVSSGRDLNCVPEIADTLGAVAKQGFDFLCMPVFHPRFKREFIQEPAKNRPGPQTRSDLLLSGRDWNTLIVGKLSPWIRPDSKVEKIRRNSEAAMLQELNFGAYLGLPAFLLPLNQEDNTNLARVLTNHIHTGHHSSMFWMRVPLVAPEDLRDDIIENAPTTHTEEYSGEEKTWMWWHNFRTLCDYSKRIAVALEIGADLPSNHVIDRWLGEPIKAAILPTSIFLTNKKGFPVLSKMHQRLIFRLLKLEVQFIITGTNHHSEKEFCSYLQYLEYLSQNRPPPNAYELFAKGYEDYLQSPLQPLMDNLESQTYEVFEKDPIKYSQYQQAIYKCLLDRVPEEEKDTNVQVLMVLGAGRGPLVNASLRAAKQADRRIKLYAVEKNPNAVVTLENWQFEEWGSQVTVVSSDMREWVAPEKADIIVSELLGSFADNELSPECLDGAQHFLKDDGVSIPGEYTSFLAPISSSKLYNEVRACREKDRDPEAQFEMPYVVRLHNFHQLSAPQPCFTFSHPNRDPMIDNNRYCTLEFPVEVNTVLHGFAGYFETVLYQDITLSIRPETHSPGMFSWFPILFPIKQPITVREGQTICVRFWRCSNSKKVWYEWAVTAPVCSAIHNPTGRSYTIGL
T1 sequence (Q9BQA1 whole entry partner): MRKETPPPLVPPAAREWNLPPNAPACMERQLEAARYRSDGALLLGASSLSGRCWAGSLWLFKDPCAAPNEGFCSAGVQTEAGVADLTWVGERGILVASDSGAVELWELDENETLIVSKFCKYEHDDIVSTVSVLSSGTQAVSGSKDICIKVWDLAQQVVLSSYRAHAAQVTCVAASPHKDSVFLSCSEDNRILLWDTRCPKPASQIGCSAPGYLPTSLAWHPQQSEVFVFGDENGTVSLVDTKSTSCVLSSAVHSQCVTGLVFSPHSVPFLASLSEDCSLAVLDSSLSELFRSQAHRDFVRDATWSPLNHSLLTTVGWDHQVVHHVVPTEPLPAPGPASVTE

| SMILES | ΔTm at 8 µM [1] [°C] | also measured |
| --- | --- | --- |
| CNN(C(=O)c1cc2c(cn1)nc(N)c1cncn12)C1COc2cc(S(F)(F)(F)(F)F)ccc21 (single isomer, unassigned) [Example 385-P2] | – | ΔTm (°C) [1]: 12.31 °C |
| CNN(C(=O)c1cc2c(cn1)nc(N)c1cncn12)C1COCc2nc(S(F)(F)(F)(F)F)ccc21 (centres unmarked) [Example 387, 4-Amino-N'-methyl-N-(2-pentafluorosulphanyl-5,8-dihydro-6H-pyrano[3,4-b]pyridin-5-yl)imidazo[1,5-a]pyridone[3,4-e]pyrazoline-8-hydrazide] | 12.6 | – |
| [2H]C([2H])([2H])NN(C(=O)c1cc2c(cc1Cl)nc(N)c1cnn(C)c12)C1COCc2c1ccn1c(C(F)(F)F)cnc21 (centres unmarked) [Example 435, 4-Amino-7-chloro-1-methyl-N'-(methyl-d3)-N-(3-(trifluoromethyl)-7,10-dihydro-8H-imidazo[1,2-a]pyrano[3,4-c]pyridin-7-yl)-1H-pyrazolo[4,3-c] quinoline-8-carbohydrazide] | 13.7 | – |
| [2H]C([2H])([2H])NN(C(=O)c1ccc2nc(N)c3cnn(C)c3c2c1)[C@@H]1COCc2c1ccn1c(C(F)(F)F)cnc21 [Example 436-P1] | 11.9 | – |
| [2H]C([2H])([2H])NN(C(=O)c1ccc2nc(N)c3c(c2c1)COC3)C1COCc2c1ccn1c(C(F)(F)F)cnc21 (centres unmarked) [Example 392, 4-Amino-N'-(trideuteriomethyl)-N-(3-trifluoromethyl-7,10-dihydro-8H-imidazo [1,2-a]pyrano [3,4-c]pyridin-7-yl)-1,3-dihydrofuro [3,4-c] quinoline-8-carbohydrazide] | 10.4 | – |
| Cc1cc2nc(N)c3cncn3c2cc1C(=O)N(C)C1COCc2c1ccc1nc(C(F)(F)F)cn21 (centres unmarked) [Example 48, 4-Amino-N,7-dimethyl-N-(8-(trifluoromethyl)-3,4-dihydro-1H-imidazo[1,2-a]pyrano[4,3-e]pyridin-4-yl)imidazo[1,5-a]quinoxaline-8-carboxamide] | 11.7 | – |
| Cc1cc2nc(N)c3cncn3c2cc1C(=O)N(C)C1COCc2c1ccn1cc(C(F)(F)F)nc21 (centres unmarked) [Example 39, 4-Amino-N,7-dimethyl-N-(2-(trifluoromethyl)-7,10-dihydro-8H-imidazo[1,2-a]pyrano[3,4-c]pyridin-7-yl)imidazo[1,5-a]quinoxaline-8-carboxamide] | 11.7 | – |
| [2H]C([2H])([2H])NN(C(=O)c1cc2c3c(c(N)nc2cn1)C(C)OC3)[C@@H]1COCc2nc(C(F)(F)F)ccc21 (some centres unmarked) [Example 322] | 10.7 | – |
| CNN(C(=O)c1cc2c(cc1C)nc(N)c1cncn12)C1COCc2c1ccn1c(C(F)(F)F)cnc21 (centres unmarked) [Example 281, 4-Amino-N',7-dimethyl-N-(3-(trifluoromethyl)-7,10-dihydro-8H-imidazo[1,2-a]pyrano[3,4-c]pyridin-7-yl)imidazo[1,5-a]quinoxaline-8-carbohydrazide] | 12.7 | – |
| Nc1nc2cnc(C(=O)N(N)C3COCc4c3ccn3c(C(F)(F)F)cnc43)cc2c2c1COC2 (centres unmarked) [Example 424, 4-Amino-N-(3-(trifluoromethyl)-7,10-dihydro-8H-imidazo[1,2-a]pyrano[3,4-c]pyridin-7-yl)-1,3-dihydrofuro[3,4-c][1,7]naphthyridine-8-carbohydrazide] | – | AUC(0-inf) [2]: 2380 ng·h/mL; Cmax [2]: 226 ng/mL; MRT inf [2]: 8.9 h; Tmax [2]: 2.7 h; half-life [2]: 366 min |
| CNN(C(=O)c1cc2c(cn1)nc(N)c1cncn12)C1COc2cc(S(F)(F)(F)(F)F)ccc21 (single isomer, unassigned) [Example 385-P1] | 14 | – |
| CNN(C(=O)c1cc2c3c(c(N)nc2cn1)COC3)C1COCc2cc(C(F)(F)F)ccc21 (centres unmarked) [Example 298, 4-Amino-N'-methyl-N-(7-(trifluoromethyl)isochroman-4-yl)-1,3-dihydrofuro[3,4-c][1,7]diazanaphthalene-8-carbohydrazide] | 11.4 | – |
| CN(C(=O)c1cc2c(cc1F)nc(N)c1cncn12)C1COCc2c1ccn1c(C(F)(F)F)c(C(=O)N3CC(=C(F)F)C3)nc21 (centres unmarked) [Example 234, 4-Amino-N-(2-(3-(difluoromethylene)azetidine-1-carbonyl)-3-(trifluoromethyl)-7,10-dihydro-8H-imidazo[1,2-a]pyrano[3,4-c]pyridin-7-yl)-7-fluoro-N-methylimidazo[1,5-a]quinoxaline-8-carboxamide] | 10.9 | – |
| CNN(C(=O)c1cc2c3c(c(N)nc2cc1F)COC3)C1COCc2nc(C(F)(F)F)ccc21 (racemic) [Example 306] | 12.7 | – |
| CNN(C(=O)c1cc2c3c(c(N)nc2cn1)N=NC3C)C1COCc2c1ccn1c(C(F)(F)F)cnc21 (centres unmarked) [Example 444, 4-Amino-N',1-dimethyl-N-(3-(trifluoromethyl)-7,10-dihydro-8H-imidazo[1,2-a]pyrano[3,4-c]pyridin-7-yl)-1H-pyrazolo[3,4-c][1,7]naphthyridine-8-carbohydrazide] | 12.7 | – |
| [2H]C([2H])([2H])NN(C(=O)c1cc2c3c(c(N)nc2cc1C)COC3)C1COCc2c1ccn1c(C(F)(F)F)cnc21 (single isomer, unassigned) [Example 357-P1] | – | ΔTm (°C) [1]: 12.45 °C |
| Cc1cc2nc(N)c3cncn3c2cc1C(=O)N(C)C1COCc2c1ccn1c(N=S(C)(C)=O)cnc21 (centres unmarked) [Example 146, 4-Amino-N-(3-((dimethyl(carbonyl)-16-sulphanylidene)amino)-7,10-dihydro-8H-imidazo[1,2-a]pyrano[3,4-c]pyridin-7-yl)-N,7-dimethylimidazo[1,5-a]quinoxaline-8-carboxamide] | 10.2 | – |
| CNN(C(=O)c1cc2c3c(c(N)nc2cn1)COC3)C1COc2cc(S(F)(F)(F)(F)F)ccc21 [Example 372, rel-(R)-4-amino-N'-methyl-N-(6-(pentafluoro-6-sulphanyl)-2,3-dihydrobenzofuran-3-yl)-1,3-dihydrofuro[3,4-c][1,7]naphthyridine-8-carbohydrazide] | 11.2 | – |
| CN(C(=O)c1ccc2nc(N)c3cnn(C)c3c2c1)C1COCc2c1ccc1cc(C(F)(F)F)cnc21 (centres unmarked) [Example 68, 4-Amino-N,1-dimethyl-N-(3-(trifluoromethyl)-7,10-dihydro-8H-pyrano[4,3-h]quinolin-7-yl)-1H-pyrazolo[4,3-c]quinoline-8-carboxamide] | 10.4 | – |
| CN(C(=O)c1cc2c(cc1F)nc(N)c1cncn12)C1COCc2c1ccn1c(C(F)=C3CCCCC3)cnc21 (centres unmarked) [Example 240, 4-Amino-N-(3-(cyclohexylidenefluoromethyl)-7,10-dihydro-8H-imidazo[1,2-a]pyrano[3,4-c]pyridin-7-yl)-7-fluoro-N-methylimidazo[1,5-a]quinoxaline-8-carboxamide] | 10.8 | – |
| CN(C(=O)c1ccc2nc(N)c3cnn(C)c3c2c1)[C@@H]1COCc2c1ccn1cc(Br)nc21 [Example 37-P1, (S)-4-amino-N-(2-bromo-7,10-dihydro-8H-imidazo[1,2-a]pyrano[3,4-c]pyridin-7-yl)-N,1-dimethyl-1H-pyrazolo[4,3-c]quinoline-8-carboxamide] | 10.5 | – |
| CNN(C(=O)c1cc2c(cn1)nc(N)c1cncn12)C1COc2cc(S(F)(F)(F)(F)F)ccc21 (racemic) [Example 385, 4-Amino-N'-methyl-N-(6-(pentafluoro-6-sulphanyl)-2,3-dihydrobenzofuran-3-yl)imidazo [1,5-a] pyrido [3,4-e] pyrazine-8-carbohydrazide] | 11.6 | – |
| [2H]C([2H])([2H])NN(C(=O)c1cc2c3c(c(N)nc2cn1)C(C)OC3)C1COCc2c1ccn1c(C(F)(F)F)cnc21 (centres unmarked) [Example 362, 4-Amino-3-methyl-N'-(trideuteriomethyl)-N-(3-trifluoromethyl-7,10-dihydro-8H-imidazo[1,2-a]pyrano[3,4-c]pyridin-7-yl)-1,3-dihydrofuro[3,4-c] naphthyridine-8-carbohydrazide] | 11.2 | – |
| Cc1cc2nc(N)c3cncn3c2cc1C(=O)N(C1CC(=C(F)F)C1)C1COCc2c1ccn1c(C(F)(F)F)cnc21 (centres unmarked) [Example 144, 4-Amino-N-[3-(difluoromethylene)cyclobutyl]-7-methyl-N-[5-(trifluoromethyl)-12-oxa-3,6-diazatricyclo[7.4.0.02,6]trideca-1(9),2,4,7-tetraen-10-yl]imidazo[1,5-a]quinoxaline-8-carboxamide] | 10.2 | – |
| CNN(C(=O)c1ccc2nc(N)c3cnn(C)c3c2c1)C1COc2cc(S(F)(F)(F)(F)F)ccc21 (racemic) [Example 450, 4-Amino-N',1-dimethyl-N-(6-(pentafluoro-6-sulphanyl)-2,3-dihydrobenzofuran-3-yl)-1H-pyrazolo[4,3-c]quinoline-8-carbohydrazide] | 12 | – |
